Experimental data from ChEMBL document CHEMBL1201861, “Genomics of Drug Sensitity in Cancer screening data, Wellcome Trust Sanger Institute”.

Assays:
Assay in all cases: cells
D-502MG = format: functional, cell-based, Homo sapiens; conditions: Homo sapiens, D-502MG
Description: SANGER: Inhibition of human D-502MG cell growth in a cell viability assay.

DMS-114 = format: functional, cell-based, Homo sapiens; conditions: Homo sapiens, DMS-114
EM-2 = format: functional, cell-based, Homo sapiens; conditions: Homo sapiens, EM-2;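 further: growth inhibition of EM-2 cells, read out with a cell viability assay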
Description: SANGER: Inhibition of human EM-2 cell growth in a cell viability assay.

ES3 = format: functional, cell-based, Homo sapiens; conditions: Homo sapiens, ES3;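 further: growth inhibition of ES3 cells, read out with a cell viability assay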
Description: SANGER: Inhibition of human ES3 cell growth in a cell viability assay.

EW-3 = format: functional, cell-based, Homo sapiens; conditions: Homo sapiens, EW-3;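 further: cell viability assay read-out, IC50 reflects inhibition of growth of the EW-3 cells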
Description: SANGER: Inhibition of human EW-3 cell growth in a cell viability assay.

GR-ST = format: functional, cell-based, Homo sapiens; conditions: Homo sapiens, GR-ST
Description: SANGER: Inhibition of human GR-ST cell growth in a cell viability assay.

GT3TKB = format: functional, cell-based, Homo sapiens; conditions: Homo sapiens, GT3TKB;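 further: growth inhibition of the cell line, read out with a cell viability assay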
Description: SANGER: Inhibition of human GT3TKB cell growth in a cell viability assay.

HAL-01 = format: functional, cell-based, Homo sapiens; conditions: Homo sapiens, HAL-01;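 further: growth inhibition of human HAL-01 cells, read out with a cell viability assay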
Description: SANGER: Inhibition of human HAL-01 cell growth in a cell viability assay.

HCE-T = format: functional, cell-based, Homo sapiens; conditions: Homo sapiens, HCE-T;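 further: cell viability assay read-out, reporting inhibition of HCE-T cell growth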
Description: SANGER: Inhibition of human HCE-T cell growth in a cell viability assay.

HT = format: functional, cell-based, Homo sapiens; conditions: Homo sapiens, HT
Description: SANGER: Inhibition of human HT cell growth in a cell viability assay.

HuTu80 = format: functional, cell-based, Homo sapiens, HUTU-80; conditions: Homo sapiens, HuTu80;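 further: growth inhibition of HuTu80 human cells, determined with a cell viability readout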
Description: SANGER: Inhibition of human HUTU-80 cell growth in a cell viability assay.

KMOE-2 = format: functional, cell-based, Homo sapiens; conditions: Homo sapiens, KMOE-2;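 further: growth inhibition of human KMOE-2 cells, read out with a cell viability assay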
Description: SANGER: Inhibition of human KMOE-2 cell growth in a cell viability assay.

LB1047-RCC = format: functional, cell-based, Homo sapiens; conditions: Homo sapiens, LB1047-RCC;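 further: inhibition of cell growth, determined with a cell viability assay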
Description: SANGER: Inhibition of human LB1047-RCC cell growth in a cell viability assay.

LB2241-RCC = format: functional, cell-based, Homo sapiens; conditions: Homo sapiens, LB2241-RCC;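 further: cell viability assay measuring how strongly the cultured human renal carcinoma line is prevented from growing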
Description: SANGER: Inhibition of human LB2241-RCC cell growth in a cell viability assay.

LB2518-MEL = format: functional, cell-based, Homo sapiens; conditions: Homo sapiens, LB2518-MEL;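 further: growth inhibition of human LB2518-MEL cells, measured with a cell viability assay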
Description: SANGER: Inhibition of human LB2518-MEL cell growth in a cell viability assay.

LB996-RCC = format: functional, cell-based, Homo sapiens; conditions: Homo sapiens, LB996-RCC
Description: SANGER: Inhibition of human LB996-RCC cell growth in a cell viability assay.

LS-1034 = format: functional, cell-based, Homo sapiens; conditions: Homo sapiens, LS-1034
Description: SANGER: Inhibition of human LS-1034 cell growth in a cell viability assay.

LU-134-A = format: functional, cell-based, Homo sapiens; conditions: Homo sapiens, LU-134-A
Description: SANGER: Inhibition of human LU-134-A cell growth in a cell viability assay.

LXF-289 cell line = format: functional, cell-based, Homo sapiens; conditions: Homo sapiens, LXF-289
Description: SANGER: Inhibition of human LXF-289 cell growth in a cell viability assay.

MC116 = format: functional, cell-based, Homo sapiens; conditions: Homo sapiens, MC116;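 further: growth inhibition of MC116 cells, read out with a cell viability assay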
Description: SANGER: Inhibition of human MC116 cell growth in a cell viability assay.

MEG-01 = format: functional, cell-based, Homo sapiens; conditions: Homo sapiens, MEG-01;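 further: growth inhibition of MEG-01 cells, read out by a cell viability assay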
Description: SANGER: Inhibition of human MEG-01 cell growth in a cell viability assay.

MLMA = format: functional, cell-based, Homo sapiens; conditions: Homo sapiens, MLMA;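 further: growth inhibition of MLMA cells (human), determined through a cell viability readout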
Description: SANGER: Inhibition of human MLMA cell growth in a cell viability assay.

MOLT-4 = format: functional, cell-based, Homo sapiens; conditions: Homo sapiens, MOLT-4;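 further: growth inhibition of MOLT-4 cells, determined with a cell viability readout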
Description: SANGER: Inhibition of human MOLT-4 cell growth in a cell viability assay.

MV4-11 = format: functional, cell-based, Homo sapiens, MV-4-11; conditions: Homo sapiens, MV4-11;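 further: cell viability readout measuring growth inhibition of human MV-4-11 cells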
Description: SANGER: Inhibition of human MV-4-11 cell growth in a cell viability assay.

Mo = format: functional, cell-based, Homo sapiens; conditions: Homo sapiens, Mo
Description: SANGER: Inhibition of human Mo-T cell growth in a cell viability assay.

NCI-H1155 = format: functional, cell-based, Homo sapiens; conditions: Homo sapiens, NCI-H1155;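 further: cell growth inhibition measured by a viability assay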
Description: SANGER: Inhibition of human NCI-H1155 cell growth in a cell viability assay.

NCI-H1770 = format: functional, cell-based, Homo sapiens; conditions: Homo sapiens, NCI-H1770;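 further: growth inhibition of NCI-H1770 cells determined with a viability readout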
Description: SANGER: Inhibition of human NCI-H1770 cell growth in a cell viability assay.

NCI-H23 = format: functional, cell-based, Homo sapiens; conditions: Homo sapiens, NCI-H23;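 further: cell viability assay measuring growth inhibition of NCI-H23 cells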
Description: SANGER: Inhibition of human NCI-H23 cell growth in a cell viability assay.

OCI-AML2 = format: functional, cell-based, Homo sapiens; conditions: Homo sapiens, OCI-AML2;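 further: growth inhibition of OCI-AML2 cells, read out with a cell viability assay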
Description: SANGER: Inhibition of human OCI-AML2 cell growth in a cell viability assay.

OS-RC-2 = format: functional, cell-based, Homo sapiens; conditions: Homo sapiens, OS-RC-2;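 further: growth inhibition of human OS-RC-2 cells, measured by a cell viability assay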
Description: SANGER: Inhibition of human OS-RC-2 cell growth in a cell viability assay.

RH-1 = format: functional, cell-based, Homo sapiens; conditions: Homo sapiens, RH-1;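 further: growth inhibition of human RH-1 cells, read out with a cell viability assay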
Description: SANGER: Inhibition of human RH-1 cell growth in a cell viability assay.

RXF 393 = format: functional, cell-based, Homo sapiens; conditions: Homo sapiens, RXF 393;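 further: growth inhibition of human RXF 393 cells, read out with a cell viability assay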
Description: SANGER: Inhibition of human RXF393 cell growth in a cell viability assay.

Ramos-2G6-4C10 = format: functional, cell-based, Homo sapiens; conditions: Homo sapiens, Ramos-2G6-4C10;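 further: growth inhibition of the cell line, measured by a cell viability read-out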
Description: SANGER: Inhibition of human Ramos-2G6-4C10 cell growth in a cell viability assay.

SF-539 = format: functional, cell-based, Homo sapiens; conditions: Homo sapiens, SF-539;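 further: Read-out is a cell viability assay, with IC50 reflecting inhibition of cell growth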
Description: SANGER: Inhibition of human SF539 cell growth in a cell viability assay.

SH-4 = format: functional, cell-based, Homo sapiens; conditions: Homo sapiens, SH-4;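 further: growth inhibition of SH-4 cells, read out with a cell viability assay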
Description: SANGER: Inhibition of human SH-4 cell growth in a cell viability assay.

SK-MEL-1 = format: functional, cell-based, Homo sapiens; conditions: Homo sapiens, SK-MEL-1;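 further: growth inhibition of human SK-MEL-1 cells, read out by a cell viability assay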
Description: SANGER: Inhibition of human SK-MEL-1 cell growth in a cell viability assay.

SK-NEP-1 = format: functional, cell-based, Homo sapiens; conditions: Homo sapiens, SK-NEP-1;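 further: growth inhibition of human SK-NEP-1 cells, read out by a cell viability assay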
Description: SANGER: Inhibition of human SK-NEP-1 cell growth in a cell viability assay.

SK-PN-DW = format: functional, cell-based, Homo sapiens; conditions: Homo sapiens, SK-PN-DW;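 further: growth inhibition measured with a viability assay on these cells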
Description: SANGER: Inhibition of human SK-PN-DW cell growth in a cell viability assay.

SNU-C2B = format: functional, cell-based, Homo sapiens; conditions: Homo sapiens, SNU-C2B;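 further: cell viability readout used to measure compound-driven suppression of SNU-C2B cell proliferation, IC50 marking half-maximal growth inhibition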
Description: SANGER: Inhibition of human SNU-C2B cell growth in a cell viability assay.

SW 954 = format: functional, cell-based, Homo sapiens; conditions: Homo sapiens, SW 954;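 further: growth inhibition of SW954 human cancer cells, read out as cell viability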
Description: SANGER: Inhibition of human SW954 cell growth in a cell viability assay.

TE-1 = format: functional, cell-based, Homo sapiens; conditions: Homo sapiens, TE-1;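 further: growth inhibition of the human TE-1 cell line, read out with a cell viability assay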
Description: SANGER: Inhibition of human TE-1 cell growth in a cell viability assay.

697 = format: functional, cell-based, Homo sapiens; conditions: Homo sapiens
Description: SANGER: Inhibition of human 697 cell growth in a cell viability assay.

A4-Fuk = format: functional, cell-based, Homo sapiens; conditions: Homo sapiens, A4-Fuk;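 further: growth inhibition of A4-Fuk cells, read out by a cell viability assay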
Description: SANGER: Inhibition of human A4-Fuk cell growth in a cell viability assay.

A498 = format: functional, cell-based, Homo sapiens; conditions: Homo sapiens, A498;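 further: growth inhibition of human A498 cells, read out with a cell viability assay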
Description: SANGER: Inhibition of human A498 cell growth in a cell viability assay.

A704 = format: functional, cell-based, Homo sapiens; conditions: Homo sapiens, A704;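 further: growth inhibition of human A704 cells, read out with a cell viability assay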
Description: SANGER: Inhibition of human A704 cell growth in a cell viability assay.

BB65-RCC = format: functional, cell-based, Homo sapiens; conditions: Homo sapiens, BB65-RCC;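 further: growth inhibition of the cell line, measured with a cell viability assay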
Description: SANGER: Inhibition of human BB65-RCC cell growth in a cell viability assay.

BE-13 = format: functional, cell-based, Homo sapiens; conditions: Homo sapiens, BE-13;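 further: growth inhibition of human BE-13 cells, measured with a cell viability assay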
Description: SANGER: Inhibition of human BE-13 cell growth in a cell viability assay.

U-266 = format: functional, cell-based, Homo sapiens; conditions: Homo sapiens, U-266
Description: SANGER: Inhibition of human U-266 cell growth in a cell viability assay.

CAS-1 = format: functional, cell-based, Homo sapiens; conditions: Homo sapiens, CAS-1;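 further: growth inhibition of CAS-1 cells, measured with a cell viability assay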
Description: SANGER: Inhibition of human CAS-1 cell growth in a cell viability assay.

SMILES: CCC/C=C/C=C/C(=O)O[C@H]1/C(=C/C(=O)OC)C[C@H]2C[C@H]([C@@H](C)O)OC(=O)C[C@H](O)C[C@@H]3C[C@H](OC(C)=O)C(C)(C)[C@](O)(C[C@@H]4C/C(=C/C(=O)OC)C[C@H](/C=C/C(C)(C)[C@]1(O)O2)O4)O3 [BRYOSTATIN 1]
- IC50 (D-502MG): > 8 nM
- IC50 (DMS-114): > 8 nM
- IC50 (EM-2): > 8 nM
- IC50 (ES3): > 8 nM
- IC50 (EW-3): > 8 nM
- IC50 (GR-ST): > 8 nM
- IC50 (GT3TKB): > 8 nM
- IC50 (HAL-01): > 8 nM
- IC50 (HCE-T): > 8 nM
- IC50 (HT): > 8 nM
- IC50 (HuTu80): > 8 nM
- IC50 (KMOE-2): > 8 nM
- IC50 (LB1047-RCC): > 8 nM
- IC50 (LB2241-RCC): > 8 nM
- IC50 (LB2518-MEL): > 8 nM
- IC50 (LB996-RCC): > 8 nM
- IC50 (LS-1034): > 8 nM
- IC50 (LU-134-A): > 8 nM
- IC50 (LXF-289 cell line): > 8 nM
- IC50 (MC116): > 8 nM
- IC50 (MEG-01): > 8 nM
- IC50 (MLMA): > 8 nM
- IC50 (MOLT-4): > 8 nM
- IC50 (MV4-11): > 8 nM
- IC50 (Mo): > 8 nM
- IC50 (NCI-H1155): > 8 nM
- IC50 (NCI-H1770): > 8 nM
- IC50 (NCI-H23): > 8 nM
- IC50 (OCI-AML2): > 8 nM
- IC50 (OS-RC-2): > 8 nM
- IC50 (RH-1): > 8 nM
- IC50 (RXF 393): > 8 nM
- IC50 (Ramos-2G6-4C10): > 8 nM
- IC50 (SF-539): > 8 nM
- IC50 (SH-4): > 8 nM
- IC50 (SK-MEL-1): > 8 nM
- IC50 (SK-NEP-1): > 8 nM
- IC50 (SK-PN-DW): > 8 nM
- IC50 (SNU-C2B): > 8 nM
- IC50 (SW 954): > 8 nM
- IC50 (TE-1): > 8 nM
- IC50 697: > 8 nM
- IC50 (A4-Fuk): > 8 nM
- IC50 (A498): > 8 nM
- IC50 (A704): > 8 nM
- IC50 (BB65-RCC): > 8 nM
- IC50 (BE-13): > 8 nM
- IC50 (U-266): > 8 nM
- IC50 (CAS-1): > 8 nM

SMILES: COc1cccc2c1C(=O)c1c(O)c3c(c(O)c1C2=O)C[C@@](O)(C(=O)CO)C[C@@H]3O[C@H]1C[C@H](N)[C@H](O)[C@H](C)O1 [DOXORUBICIN]
- IC50 (D-502MG): > 1020 nM
- IC50 (DMS-114): 396 nM
- IC50 (EM-2): 325 nM
- IC50 (ES3): 89.5 nM
- IC50 (EW-3): 280 nM
- IC50 (GR-ST): 255 nM
- IC50 (GT3TKB): 67.2 nM
- IC50 (HAL-01): 313 nM
- IC50 (HCE-T): 165 nM
- IC50 (HT): 405 nM
- IC50 (HuTu80): 2.12 nM
- IC50 (KMOE-2): 576 nM
- IC50 (LB1047-RCC): 36 nM
- IC50 (LB2241-RCC): 235 nM
- IC50 (LB2518-MEL): 413 nM
- IC50 (LB996-RCC): 78.5 nM
- IC50 (LS-1034): 385 nM
- IC50 (LU-134-A): 67.7 nM
- IC50 (LXF-289 cell line): 109 nM
- IC50 (MC116): 391 nM
- IC50 (MEG-01): 177 nM
- IC50 (MLMA): 122 nM
- IC50 (MOLT-4): 22.9 nM
- IC50 (MV4-11): 10 nM
- IC50 (Mo): 805 nM
- IC50 (NCI-H1155): 580 nM
- IC50 (NCI-H1770): 133 nM
- IC50 (NCI-H23): 284 nM
- IC50 (OCI-AML2): 45 nM
- IC50 (OS-RC-2): 182 nM
- IC50 (RH-1): 6.73 nM
- IC50 (RXF 393): 335 nM
- IC50 (Ramos-2G6-4C10): 295 nM
- IC50 (SF-539): 122 nM
- IC50 (SH-4): 92.1 nM
- IC50 (SK-MEL-1): > 1020 nM
- IC50 (SK-NEP-1): 116 nM
- IC50 (SK-PN-DW): 25.7 nM
- IC50 (SNU-C2B): 461 nM
- IC50 (SW 954): 16.9 nM
- IC50 (TE-1): 76.4 nM
- IC50 697: 19.1 nM
- IC50 (A4-Fuk): 162 nM
- IC50 (A498): > 1020 nM
- IC50 (A704): > 1020 nM
- IC50 (BB65-RCC): 149 nM
- IC50 (BE-13): 51 nM
- IC50 (U-266): 451 nM
- IC50 (CAS-1): 238 nM
